Data: patent US10350210B2, “EGFR and ALK dual inhibitor” (PRECEDO PHARMACEUTICALS CO., LTD, priority 2015, dated 2019)

Experiments:
[1] = tested on: NCI-H1975; experiment: Growth of cancer cells (Cell Titer-Glo viability), NCI-H1975; assay type: cell-based; conditions: Homo sapiens; NCI-H1975 (EGFR L858R/T790M double mutant), 72 hrs
Text: (§1) By testing the effect of the novel kinase inhibitors on the proliferation of cancer cells, the selectivity of the compounds of the present disclosure in inhibiting the proliferation of cancer cells was further assessed. In this example, human non-small cell lung cancer cell NCI-H1975 (expressing EGFR L858R/T790M double mutant gene), human skin squamous carcinoma cell A431 (expressing wild-type EGFR gene), non-small cell lung cancer NCI-H3255 (expressing EGFR L858R mutant gene), non-small cell lung cancer cell NCI-H3122 (expressing ALK gene), human non-small cell lung cancer cell A549 (expressing wild-type EGFR gene), human non-small cell lung cancer cell NCI-H2122 (expressing wild-type EGFR gene), human non-small cell lung cancer cell NCI-H460 (expressing wild-type EGFR gene), human non-small cell lung cancer cell PC-9 (expressing EGFR delE746_A750 mutant gene), Chinese hamster ovary cell CHO (Cricetulus griseus, hamster, Chinese, ovary), Chinese hamster lung cell CHL, human non-small cell lung cancer cell HCC827 (expressing mutant EGFR del19 gene), human lung adenocarcinoma cell HCC4006 (expressing mutant EGFR del19 gene), human non-small cell lung cancer cell NCI-H2228 (expressing wild-type ALK gene), and mouse primary B cell BaF3 were used, and the above cells were all purchased from ATCC (US). In addition, mouse BaF3-TEL-ALK (stably expressing ALK kinase), mouse BaF3-ALK-F1174L (stably expressing mutant ALK F1174L kinase), mouse BaF3-NPM-ALK (stably expressing ALK kinase), mouse BaF3-TEL-EGFR (stably expressing EGFR kinase), mouse BaF3-TEL-EGFR-T790M (stably expressing EGFR T790M mutant kinase), mouse BaF3-FL-EGFR-Del19 (stably expressing EGFR delE746_A750 mutant kinase), mouse BaF3-TEL-EGFR-L858R (stably expressing EGFR L858R mutant kinase), mouse BaF3-FL-EGFR-T790M-L858R (stably expressing EGFR T790M/L858R mutant kinase), mouse BaF3-TEL-INSR (stably expressing INSR protein), mouse BaF3-TEL-IGF1R (stably expressing IGF1R Protein), mouse BaF3-EML4-ALK (stably expressing EML4-ALK Protein), mouse BaF3-TEL-JAK3 (stably expressing JAK3 kinase protein), mouse BaF3-TEL-CSF1R (stably expressing CSF1R protein), and mouse BaF3-TEL-ALK-F1196M (stably expressing ALK F1196M mutant kinase) were also used in this example. The above cell lines were all established by our laboratory via the following process: kinase proteins or protein domain sequences of human ALK, ALK F1174L, EGFR, EGFR T790M, EGFR delE746_A750, EGFR L858, EGFR T790M/L858R, INSR, IGF1R, EML4-ALK, JAK3, CSF1R, ALK F1196M were amplified respectively by PCR, and were respectively inserted into MSCV-Puro vector (Clontech) with N-terminal TEL fragments and/or NPM fragments and/or TPR fragments; the resultants were stably transfected into mouse BaF3 cells by the means of retrovirus, and the IL-3 growth factors were removed, and eventually the ALK, ALK F1174L, EGFR, EGFR T790M, EGFR delE746_A750, EGFR L858, EGFR T790M/L858R, INSR, IGF1R, EML4-ALK, JAK3, CSF1R, ALK F1196M-transferred protein dependent cell lines were obtained.
(§2) The number of viable cells was determined quantitatively by a microplate reader using Cell Titer-Glo® (Promega, US) chemiluminescence cell viability assay kit.

[2] = tested on: PC-9; experiment: Growth of cancer cells (Cell Titer-Glo viability), PC-9; assay type: cell-based; conditions: Homo sapiens; PC-9 (EGFR delE746_A750 mutant), 72 hrs
Text: as §1, §2

[3] = tested on: A431; experiment: Growth of cancer cells (Cell Titer-Glo viability), A431; assay type: cell-based; conditions: Homo sapiens, A-431; A431 (wild-type EGFR), 72 hrs; read-out: GI50
Text: as §1, §2

[4] = tested on: CHO; experiment: Cell growth (Cell Titer-Glo viability), CHO; assay type: cell-based, Chinese hamster; conditions: Cricetulus griseus; CHO Chinese hamster ovary cell, 72 hrs; read-out: GI50
Text: as §1, §2

[5] = tested on: CHL; experiment: Cell growth (Cell Titer-Glo viability), CHL; assay type: cell-based, Chinese hamster; conditions: Cricetulus griseus; CHL Chinese hamster lung cell, 72 hrs; read-out: GI50
Text: as §1, §2

[6] = tested on: NCI-H2122; experiment: Growth of cancer cells (Cell Titer-Glo viability), NCI-H2122; assay type: cell-based; conditions: Homo sapiens; NCI-H2122 (wild-type EGFR), 72 hrs
Text: as §1, §2

[7] = tested on: A549; experiment: Growth of cancer cells (Cell Titer-Glo viability), A549; assay type: cell-based; conditions: Homo sapiens; A549 (wild-type EGFR), 72 hrs
Text: as §1, §2

[8] = tested on: HCC827; experiment: Growth of cancer cells (Cell Titer-Glo viability), HCC827; assay type: cell-based; conditions: Homo sapiens; HCC827 (mutant EGFR del19), 72 hrs
Text: as §1, §2

[9] = tested on: HCC4006; experiment: Growth of cancer cells (Cell Titer-Glo viability), HCC4006; assay type: cell-based; conditions: Homo sapiens; HCC4006 (mutant EGFR del19), 72 hrs
Text: as §1, §2

[10] = tested on: NCI-H3122; experiment: Growth of cancer cells (Cell Titer-Glo viability), NCI-H3122; assay type: cell-based; conditions: Homo sapiens; NCI-H3122 (expressing ALK gene), 72 hrs; read-out: GI50
Text: as §1, §2

[11] = tested on: NCI-H2228; experiment: Growth of cancer cells (Cell Titer-Glo viability), NCI-H2228; assay type: cell-based; conditions: Homo sapiens; NCI-H2228 (wild-type ALK), 72 hrs
Text: as §1, §2

[12] = tested on: BaF3; experiment: Cell growth (Cell Titer-Glo viability), BaF3; assay type: cell-based; conditions: BaF3 mouse primary B cell, 72 hrs
Text: as §1, §2

[13] = tested on: BaF3-TEL-ALK; experiment: Cell growth (Cell Titer-Glo viability), BaF3-TEL-ALK; assay type: cell-based; conditions: Mus musculus; BaF3-TEL-ALK (stably expressing ALK kinase), 72 hrs
Text: as §1, §2

[14] = tested on: BaF3-ALK-F1174L; experiment: Cell growth (Cell Titer-Glo viability), BaF3-ALK-F1174L; assay type: cell-based; conditions: Mus musculus; BaF3-ALK-F1174L (mutant ALK F1174L kinase), 72 hrs
Text: as §1, §2

[15] = tested on: BaF3-TEL-EGFR-T790M; experiment: Cell growth (Cell Titer-Glo viability), BaF3-TEL-EGFR-T790M; assay type: cell-based; conditions: Mus musculus; BaF3-TEL-EGFR-T790M (EGFR T790M mutant kinase), 72 hrs
Text: as §1, §2

[16] = tested on: BaF3-FL-EGFR-Del19; experiment: Cell growth (Cell Titer-Glo viability), BaF3-FL-EGFR-Del19; assay type: cell-based; conditions: Mus musculus; BaF3-FL-EGFR-Del19 (EGFR delE746_A750 mutant kinase), 72 hrs
Text: as §1, §2

[17] = tested on: NCI-H3255; experiment: Growth of cancer cells (Cell Titer-Glo viability), NCI-H3255; assay type: cell-based; conditions: Homo sapiens; NCI-H3255 (EGFR L858R mutant), 72 hrs
Text: as §1, §2

[18] = tested on: BaF3-NPM-ALK; experiment: Cell growth (Cell Titer-Glo viability), BaF3-NPM-ALK; assay type: cell-based; conditions: Mus musculus; BaF3-NPM-ALK (stably expressing ALK kinase), 72 hrs
Text: as §1, §2

[19] = tested on: BaF3-TEL-INSR; experiment: Cell growth (Cell Titer-Glo viability), BaF3-TEL-INSR; assay type: cell-based; conditions: Mus musculus; BaF3-TEL-INSR (stably expressing INSR protein), 72 hrs
Text: as §1, §2

[20] = tested on: BaF3-TEL-EGFR; experiment: Cell growth (Cell Titer-Glo viability), BaF3-TEL-EGFR; assay type: cell-based; conditions: Mus musculus; BaF3-TEL-EGFR (stably expressing EGFR kinase), 72 hrs
Text: as §1, §2

SMILES	GI50 [1]	GI50 [2]	GI50 [3]	GI50 [4]	GI50 [5]	GI50 [6]	GI50 [7]	GI50 [8]	GI50 [9]	GI50 [10]	GI50 [11]	GI50 [12]	GI50 [13]	GI50 [14]	GI50 [15]	GI50 [16]	GI50 [17]	GI50 [18]	GI50 [19]	GI50 [20]
C=CC(=O)Nc1cc(Nc2ncc(Cl)c(Nc3ccccc3S(=O)(=O)C(C)C)n2)c(OC)cc1N1CCN(C(=O)OC(C)(C)C)CC1 [Compound 3, tert-butyl 4-(2-acrylamido-4-(5-chloro-4-(2-(isopropylsulfonyl)phenylamino)pyrimidin-2-ylamino)-5-methoxyphenyl)piperazine-1-carbonate]	380 nM	250 nM	1200 nM	> 10000 nM	> 10000 nM	710 nM	> 10000 nM	370 nM	1100 nM	32 nM	560 nM	4700 nM	24 nM	1300 nM	290 nM	130 nM				
C=CC(=O)Nc1cc(Nc2ncc(Cl)c(Nc3ccccc3P(C)(C)=O)n2)c(OC)cc1N1CCC(N(C)C)CC1 [Compound 49, N-(5-(5-chloro-4-(2-(dimethylphosphinoyl)phenylamino)pyrimidin-2-ylamino)-2-(4-(dimethylamino)piperidin-1-yl)-4-methoxyphenyl)acrylamide]	220 nM	120 nM					8600 nM	15 nM		140 nM		> 10000 nM	450 nM				350 nM	600 nM	920 nM	
C=CC(=O)Nc1cc(Nc2ncc(Cl)c(Nc3ccccc3P(C)(C)=O)n2)c(OC)cc1N1CCN(CC)CC1 [Compound 47, N-(5-(5-chloro-4-(2-(dimethylphosphinoyl)phenylamino)pyrimidin-2-ylamino)-2-(4-ethylpiperazin-1-yl)-4-methoxyphenyl)acrylamide]	26 nM	5 nM					1700 nM	< 0.3 nM		37 nM		> 10000 nM	74 nM				140 nM	310 nM	72 nM	
C=CC(=O)Nc1cc(Nc2ncc(Cl)c(Nc3ccccc3S(=O)(=O)C(C)C)n2)c(OC)cc1N1CCN(CCF)CC1 [Compound 9, N-(5-(5-chloro-4-(2-(isopropylsulfonyl)phenylamino)pyrimidin-2-ylamino)-2-(4-(2-fluoroethyl)piperazin-1-yl)-4-methoxyphenyl)acrylamide]	59 nM	43 nM	320 nM	1000 nM	4300 nM	680 nM	1300 nM	35 nM		42 nM	260 nM	2900 nM	> 10000 nM	540 nM	47 nM	< 0.3 nM				650 nM
C=CC(=O)Nc1cc(Nc2ncc(Cl)c(Nc3ccccc3P(C)(C)=O)n2)c(OC)cc1N1CCC(N2CCCCC2)CC1 [Compound 48, N-(5-(5-chloro-4-(2-(dimethylphosphinoyl)phenylamino)pyrimidin-2-ylamino)-4-methoxy-2-(4-(piperidin-1-yl)piperidin-1-yl)phenyl)acrylamide]	41 nM	32 nM					5300 nM	5 nM		78 nM		5300 nM	190 nM				200 nM	380 nM	290 nM	
C=CC(=O)Nc1cc(Nc2ncc(Cl)c(Nc3cccc(C(F)(F)F)c3)n2)c(OC)cc1N1CCN(C)CC1 [Compound 18, N-(5-(5-chloro-4-(3-(trifluoromethyl)phenylamino)pyrimidin-2-ylamino)-4-methoxy-2-(4-methylpiperazin-1-yl)phenyl)acrylamide]	260 nM	160 nM	4600 nM	5400 nM	4200 nM	3400 nM	> 10000 nM	46 nM		770 nM	170 nM	4300 nM	180 nM	1700 nM	80 nM	< 0.3 nM				
C=CC(=O)Nc1cc(Nc2ncc(Cl)c(Nc3ccccc3S(=O)(=O)C(C)C)n2)c(OC)cc1N1CCN(C)CC1 [Compound 2, N-(5-(5-chloro-4-(2-(isopropylsulfonyl)phenylamino)pyrimidin-2-ylamino)-4-methoxy-2-(4-methylpiperazin-1-yl)phenyl)acrylamide]	43 nM	5 nM	250 nM	500 nM	2000 nM	3600 nM	870 nM	10 nM		33 nM	250 nM	1600 nM	> 10000 nM	670 nM	12 nM	< 0.3 nM				450 nM
C=CC(=O)Nc1cc(Nc2ncc(Cl)c(Nc3ccccc3S(=O)(=O)N(C)C)n2)c(OC)cc1N1CCN(C)CC1 [Compound 32, N-(5-(5-chloro-4-(2-(N,N-dimethylsulfamido)phenylamino)pyrimidin-2-ylamino)-4-methoxy-2-(4-methylpiperazin-1-yl)phenyl)acrylamide]	31 nM	< 3 nM	220 nM	340 nM	1600 nM	370 nM	600 nM	< 3 nM		11 nM	490 nM	1100 nM	> 10000 nM	530 nM	10 nM	< 0.3 nM				500 nM
